The term inhibition denotes how much of the control response was suppressed. By IC50 is commonly meant the point on the concentration scale where inhibition reaches its midpoint. A low value points to greater potency in that assay.

Each structure is given as a SMILES string.

Experimental findings from paper PMC6628235 (Marine Drugs, 2019) are described below.

Common to all, as to type: biochemical
Assay [1] concerns the target T1, butyrylcholinesterase (BuChE) (Equus caballus, UniProt P81908).
T1 construct: gene BCHE
Kind of assay: modified Ellman's assay, % inhibition at […] (IC50 not determined).

The target in assay [2] is acetylcholinesterase (AChE) (Electrophorus electricus, UniProt O42275). In words: modified Ellman's microplate assay ([…] inhibition at […]). In general terms: Ellman's reagent forms a yellow product with free thiols.
Chain of acetylcholinesterase (AChE) (O42275 24-633): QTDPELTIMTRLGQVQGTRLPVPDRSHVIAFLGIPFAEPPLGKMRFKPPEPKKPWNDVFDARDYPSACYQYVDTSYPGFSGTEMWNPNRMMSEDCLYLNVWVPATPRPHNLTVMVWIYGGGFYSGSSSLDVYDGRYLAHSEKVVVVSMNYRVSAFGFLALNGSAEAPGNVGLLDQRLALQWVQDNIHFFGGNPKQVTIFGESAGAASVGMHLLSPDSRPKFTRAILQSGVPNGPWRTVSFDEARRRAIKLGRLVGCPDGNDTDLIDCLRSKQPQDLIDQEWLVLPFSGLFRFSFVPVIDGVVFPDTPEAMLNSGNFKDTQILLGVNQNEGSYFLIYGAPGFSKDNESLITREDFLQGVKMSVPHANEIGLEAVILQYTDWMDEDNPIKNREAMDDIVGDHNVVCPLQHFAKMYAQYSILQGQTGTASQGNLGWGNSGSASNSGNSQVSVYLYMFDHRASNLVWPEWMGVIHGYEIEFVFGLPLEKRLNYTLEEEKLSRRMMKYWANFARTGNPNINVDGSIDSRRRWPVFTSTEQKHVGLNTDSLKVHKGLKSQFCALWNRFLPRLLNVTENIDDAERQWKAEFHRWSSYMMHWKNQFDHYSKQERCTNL
Assay [3] deals with T1, butyrylcholinesterase (BuChE). In words: modified Ellman's assay, positive control, % inhibition at […] (IC50 not determined).

T1 sequence (P81908 whole entry): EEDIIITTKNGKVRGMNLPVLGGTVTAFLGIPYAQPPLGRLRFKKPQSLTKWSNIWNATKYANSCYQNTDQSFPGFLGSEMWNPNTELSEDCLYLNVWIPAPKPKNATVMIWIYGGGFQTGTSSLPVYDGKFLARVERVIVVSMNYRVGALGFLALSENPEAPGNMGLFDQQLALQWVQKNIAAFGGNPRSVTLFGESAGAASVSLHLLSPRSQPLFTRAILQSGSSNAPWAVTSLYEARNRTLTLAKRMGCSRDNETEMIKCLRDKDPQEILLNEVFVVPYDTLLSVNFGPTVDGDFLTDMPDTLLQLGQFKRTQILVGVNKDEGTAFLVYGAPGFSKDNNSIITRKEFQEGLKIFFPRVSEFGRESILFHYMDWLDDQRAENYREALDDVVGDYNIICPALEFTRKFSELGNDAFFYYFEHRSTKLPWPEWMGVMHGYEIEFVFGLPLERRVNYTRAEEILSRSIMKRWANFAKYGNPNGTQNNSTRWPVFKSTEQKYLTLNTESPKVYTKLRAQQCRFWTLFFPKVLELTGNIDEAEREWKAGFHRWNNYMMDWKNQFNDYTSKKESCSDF

In assay [1], `CC1=C[C@H](O)[C@]2(CC1=O)C[C@H](O)C(C)(C)O2` [compound 1, (3S, 5R, 10S)-3,10-dihydroxy-2,2,8-trimethyl-1-oxospiro[4.5]dec-8-en-7-one] registered an inhibition at 6.25 µM of 30.71 ± 0.21%.

In assay [2], `Cc1cc2nc3[nH]c(=O)[nH]c(=O)c3nc2cc1C` [compound 3, lumichrome] displayed a half-inhibitory concentration (IC50) of 12.24 ± 0.12 µM.

`COc1ccc2c3c1O[C@H]1C[C@@H](O)C=C[C@@]31CCN(C)C2` [galantamine]: in assay [3], the “% inhibition at 6.25 μM” value came out at 10.34 ± 0.21.
